Assay: Thermogravimetry of the temperature of decomposition of indigo (FIGS. 3 and 6)
Assay type: physicochemical
Experimental: […] This peak is offset to around 540° C. when the mixture has been heated at 18 (unheated), 120, 180, 280 and 350° C. during production of the composite.
In addition, during the step of cleaning by heating at temperatures of 18 (unheated), 180, 280 and 320° C. for 20 minutes, a peak characteristic of the presence of indigo in the external medium is observed, as these molecules begin to decompose at 280° C. with a maximum rate at 340° C. This phenomenon is possible owing to surface interactions between the indigo and the sepiolite, which reduce the temperature of decomposition of the indigo, which in a pure product begins at 300° C. with a maximum at 390° C. However, this peak disappears after the cleaning by heating at 350° C. for 20 minutes. […] Also, at 520° C., a peak characteristic of the presence of indigo in the sepiolite tunnels is observed. This cleaning by heating step in this type of preparation enables only the molecules present in the tunnels to be preserved.

- temperature of maximum rate of decomposition of indigo (indigo in the external medium of 23% indigo/sepiolite mixtures): 340 °C
- temperature at which decomposition of indigo begins (indigo in the external medium of 23% indigo/sepiolite mixtures (surface interactions with sepiolite)): 280 °C
- temperature of the thermogravimetric peak of indigo (indigo in the sepiolite tunnels of 23% indigo/sepiolite mixtures (FIG. 6)): around 520 °C
- maximum temperature of decomposition of indigo (indigo incorporated in the sepiolite tunnels (FIG. 3)): 540 °C
- maximum temperature of decomposition of indigo (native indigo (FIG. 3)): around 375 °C
- temperature at which decomposition of indigo begins (pure product): 300 °C
- temperature of maximum decomposition of indigo (pure product): 390 °C
SMILES: O=C1/C(=C2\Nc3ccccc3C2=O)Nc2ccccc21 [indigo]
